{"source": "paper PMC4366505", "about": "“Triggering HIV polyprotein processing by light using rapid photodegradation of a tight-binding protease inhibitor” (Nature Communications, 2015)", "key": {"[1]": {"system": "HIV-1 replication in MT-4 cells", "test": "Anti-HIV-1 activity in MT-4 cells (HIV-1 NL4-3 hRluc, Renilla luciferase)", "details": "Human immunodeficiency virus 1, MT4, 72 h, read-out: EC50, inhibition of HIV-1 replication", "quoted_text": "(§3) Cytotoxicity was determined by incubating two-fold serial dilutions of 1 in triplicate in a 96-well plate\n(§4) with 30,000 HEK293T cells/well seeded day ago in Dulbecco’s modified Eagle’s medium with L-\n(§5) glutamine supplemented with 10% fetal calf serum (FCS, PAA), 100 U of penicillin/mL, 100 µg of\n(§6) streptomycin/mL (Sigma-Aldrich) and with 30,000 MT-4 cells (obtained through the NIH AIDS\n(§7) medium with 2 mM L-glutamine (PAA) supplemented with 10% FCS, 10 mM HEPES (Sigma-Aldrich),\n(§8) 100 U of penicillin/ml, and 100 µg of streptomycin/mL. After 72 h of incubation at 37 °C, 5 % CO2,\n(§9) tetrazolium salt XTT (Sigma-Aldrich) was added to the wells for 4 h and formation of colored\n(§10) formazan solution was quantified using Victor X3 plate reader (Perkin Elmer). The percentage of\n(§11) cytopathic effect (CPE) was plotted against the log10 1 concentrations and the 50 % cytotoxic\n(§12) concentrations (CC50) were calculated using nonlinear regression analysis with GraphPad Prism ver. 6\n(§13) 1NL4-3hRluc (HIV expressing human Renilla luciferase12) at multiplicity of infection 0.001 IU/ml for 1 h at […]\n(§14) dilutions of 1. After 72 h incubation at 37 °C, 5 % CO2 HIV-1 activity was quantified by measuring\n(§15) Renilla luciferase luminescence using the Renilla Luciferase Assay System (Promega) in Victor X3\n(§16) plate reader. Percentage of inhibition of luminescence activity was plotted against the log10 1 […]"}, "[2]": {"test": "Cytotoxicity, XTT, MT-4 cells", "details": "human", "quoted_text": "as §3, §4, §5, §6, §7, §8, §9, §10, §11, §12, §13, §14, §15, §16"}, "[3]": {"target": "T1, purified recombinant HIV-1 PR (Human immunodeficiency virus type 1 group M subtype B, UniProt P04585)", "T1 construct": "This 99 amino acid long homodimeric aspartic PR; made in house; host or cells: Escherichia coli BL21(DE3) RIL", "test": "Inhibition of HIV-1 PR, spectrophotometric assay with chromogenic substrate (Morrison equation)", "type": "biochemical", "method": "Ki values were determined by spectrophotometric assay using purified recombinant HIV-1 PR and the chromogenic substrate KARVNleNphEaNle-NH2. Data were analyzed using the Morrison equation[35]."}, "[4]": {"system": "HIV-1 PR inside immature HIV-1 particles", "test": "Photoinduced Gag processing in immature HIV-1 particles produced with inhibitor (capillary irradiation, quantitative immunoblot)", "type": "cell-based", "method": "Having established conditions for the inhibition of HIV-1 polyprotein processing by compound 1, we proceeded to prepare immature particles for in situ activation of PR. For this, virus particles were produced in transfected HEK293T cells grown in the presence of 2 μM inhibitor. The experimental set up is schematically illustrated in Fig. 5a. Particles collected from inhibitor-treated cells were either subjected to inhibitor wash-out by two subsequent ultracentrifugation steps (Fig. 5b), or only filtered to remove cell debris (Fig. 5c). In both cases, samples were then either irradiated (405 nm) in a glass capillary (Fig. 5b,c, bottom panels) or passed through the capillary in the absence of irradiation (Fig. 5b,c, top panels).\nFigure 5 Photoinduced Gag processing in the context of the assembled virion. (a) Schematic illustration of the irradiation experiment to trigger HIV-1 maturation using photoinactivation of compound 1. HEK293T cells were transfected with a proviral HIV-1 plasmid and particles were produced in the presence of 2 μM compound 1. At 44 h post transfection, tissue culture supernatant was harvested and either subjected to ultracentrifugation (b,d) or used directly (c,e). In both cases, samples were then pumped through the capillary set up shown in Supplementary Fig. 4 either with or without ultraviolet irradiation. Subsequently, samples were incubated for various lengths of time. (b,c) Immunoblot analysis of Gag processing products. Samples were separated by SDS–PAGE, and products of Gag processing were detected by quantitative immunoblot (LiCor) using antiserum raised against recombinant HIV-1 CA. The figures show samples incubated for the indicated times without prior irradiation or following irradiation, respectively. Positions of Gag-derived proteins are indicated. (d,e) Quantitative analysis of the experiments shown in b or c, respectively. Anti-CA reactive bands from the immunoblots shown and from corresponding blots from irradiated mature control virus produced in the absence of inhibitor (not shown here) were quantified using Image Studio Light. The graphs show the proportion of mature CA relative to the sum of all anti-CA reactive bands in the respective lane. Filled triangles, irradiated control virus; open circles, inhibitor-treated virus, not irradiated; filled circles, inhibitor-treated virus, irradiated. Curves through data from inhibitor-treated samples represent fits to a single exponential equation. The results are representative of several independent experiments with a slight variation in the half-time of Gag polyprotein processing between 20 and 30 min. CA, capsid; MA, matrix.\nHEK293T cells were seeded in six-well plates in high-glucose, phenol red-free DMEM supplemented with penicillin/streptomycin and 10% foetal calf serum. On the following day, cells were transfected with plasmid pCHIV[37] using polyethyleneimine according to standard procedures. A final concentration of 2 μM compound 1 or DMSO (vehicle) was added to the tissue culture medium at the time of transfection. At 44 h post transfection, tissue culture supernatants were harvested, adjusted to pH 6.0 using PR buffer (50 mM MES, pH 6.0, 150 mM NaCl, 2 mM DTT, 1 mM EDTA). Alternatively, supernatants were harvested, filtered, inhibitor was removed by two successive ultracentrifugation steps through a 20% sucrose cushion and the particle pellet was resuspended in PR buffer. […]"}, "[5]": {"test": "Solubility in culture conditions", "type": "physicochemical", "details": "2 μM in 0.5% DMSO"}, "HEK293T cells": {"system": "HEK293T cells", "test": "Cytotoxicity, XTT, HEK293T cells", "details": "2 μM in 0.5% DMSO; cell line not given"}, "[6]": {"test": "Cytotoxicity, XTT, HEK293T cells", "details": "human, HEK293T cells", "quoted_text": "as §3, §4, §5, §6, §7, §8, §9, §10, §11, §12, §13, §14, §15, §16"}, "[7]": {"system": "HIV-1 Gag polyprotein processing", "test": "Inhibition of HIV-1 Gag polyprotein processing in particles from transfected HEK293T cells (immunoblot)", "type": "cell-based", "details": "Human immunodeficiency virus 1, HEK-293T; particles from HEK293T cells transfected with HIV-1 proviral plasmid; read-out: concentration giving ~50% reduction in Gag cleavage", "method": "PR-mediated cleavage of the Gag polyprotein yields the mature structural proteins and two small spacer peptides (Fig. 4a), and different rates of cleavage at individual sites result in the generation of characteristic processing intermediates. First, we assessed the inhibitory potency of compound 1 on HIV-1 Gag polyprotein processing in virus producing cells. For this, particles were purified from the supernatant of HEK293T cells transfected with an HIV-1 proviral plasmid and incubated in the presence of various concentrations of compound 1.\nFigure 4 Inhibition of HIV-1 Gag processing by compound 1. (a) Schematic representation of the 55 kDa HIV-1 Gag polyprotein and its cleavage products. (b) Inhibition of HIV-1 Gag processing by compound 1. HIV-1 particles were produced in HEK293T cells in the presence of the indicated inhibitor concentrations. […]\nSamples were separated by SDS–PAGE (17.5%; acrylamide:bisacrylamide 200:1), and proteins were transferred to a nitrocellulose membrane by semi-dry blotting. HIV-1 Gag-derived proteins were detected using rabbit polyclonal antiserum raised against HIV-1 CA, followed by fluorescently labelled goat-anti rabbit secondary antibody (LiCor). Quantification of anti-CA reactive bands was performed using an infrared imaging system (LiCor Odyssey) and Image Studio Lite software. Data were analyzed with GraphPad prism."}, "[8]": {"target": "T1, purified recombinant HIV-1 PR", "test": "Reactivation of inhibited HIV-1 PR by photolysis at 405 nm, capillary set up", "type": "biochemical", "method": "(§1) To evaluate the efficacy of photodegradation, we analyzed the restoration of HIV-1 PR activity that had been inhibited by compound 1 (Fig. 3a) on irradiation at 405 nm. For irradiation, two lasers with outputs of 130 mW and 170 mW, respectively, were used in parallel. First, we tested a standard cuvette set up, in which 8 nM purified recombinant HIV-1 PR (final concentration of compound 1: 10 or 100 nM; Fig. 3b) in 1 ml cleavage buffer was irradiated. At the lower concentration, irradiation led to a significant restoration of enzyme activity (65% compared with the uninhibited enzyme reaction). At the higher concentration of compound 1, however, PR reactivation was limited even after prolonged irradiation (only 35% activity after 5 min of irradiation). […]\n(§2) Figure 3 Kinetic analysis of HIV-1 PR reactivation by inhibitor photodegradation. […] The activity of purified recombinant HIV-1 PR was determined in vitro as described in the experimental section in the presence of the indicated inhibitor concentrations. […] The PR activity was then measured using a chromogenic substrate. […] Relative PR activity was determined as in b after 20-fold dilution into cleavage buffer using the same chromogenic substrate (for details, see Experimental section) and plotted against the flow rate of the sample through the capillary. […]"}, "[9]": {"target": "T1, purified recombinant HIV-1 PR", "test": "Reactivation of inhibited HIV-1 PR by photolysis at 405 nm, cuvette set up", "type": "biochemical", "details": "8 nM PR", "method": "as §1, with “reaction).” for “reaction). At the higher concentration of compound 1, however, PR reactivation was limited even after prolonged irradiation (only 35% activity after 5 min of irradiation).”\nas §2\nCuvette set up. […] The enzyme activity (and thus the efficacy of photodegradation) was followed by the decrease in absorbance at 305 nm."}}, "note": "Read-outs that look alike come from different tables or passages of the source."}
{"compound": "CCN(CC)c1ccc2c(COC(=O)N[C@H](C(=O)N[C@@H](Cc3ccccc3)C[C@H](O)[C@H](Cc3ccccc3)NC(=O)OCc3cncs3)C(C)C)cc(=O)oc2c1", "note": "[compound 1]", "values": [{"measurement": "EC50", "setting": "[1]", "result": 8.1, "unit": "nM"}, {"measurement": "CC50 at 72 h", "setting": "[2]", "result": 7300, "unit": "nM"}, {"measurement": "Ki", "setting": "[3]", "result": "0.17 ± 0.02", "unit": "nM"}, {"measurement": "difference in Ki values for RTV and compound 1", "setting": "[3]; RTV more potent", "result": 10, "unit": "fold"}, {"measurement": "loss of potency on irradiation", "setting": "[3]; irradiation with a 405 nm laser, inhibitor versus photolysis product", "result": "4 orders of magnitude"}, {"measurement": "Gag processing after irradiation", "setting": "[4]; culture medium without inhibitor removal, irradiated at 405 nm", "result": "virtually complete Gag processing"}, {"measurement": "Gag processing without irradiation", "setting": "[4]; culture medium without inhibitor removal, no irradiation, prolonged incubation", "result": "no induction of proteolysis"}, {"measurement": "mature CA (proportion of all anti-CA reactive bands)", "setting": "[4]; inhibitor wash-out by ultracentrifugation, then irradiated at 405 nm, within 15 min, particles produced with 2 μM", "result": "~ 30%"}, {"measurement": "unprocessed or partially processed Gag products remaining", "setting": "[4]; inhibitor wash-out, then irradiated, at 6 h of incubation", "result": "~ 50%"}, {"measurement": "half-time of Gag processing after irradiation", "setting": "[4]; particles produced with 2 μM inhibitor, irradiated at 405 nm in capillary", "result": "~ 20 min"}, {"measurement": "solubility", "setting": "[5]", "result": "soluble"}, {"measurement": "cytotoxicity at working concentration", "setting": "HEK293T cells", "result": "noncytotoxic"}, {"measurement": "CC50 at 72 h", "setting": "[6]", "result": "> 50000", "unit": "nM"}, {"measurement": "IC50", "setting": "[7]", "result": "~500", "unit": "nM"}, {"measurement": "compound degraded by irradiation (estimate)", "setting": "[8]; estimated from 75% restored PR activity", "result": "up to 98%"}, {"measurement": "original PR activity recovered", "setting": "[8]; flow rate 15 μl min^−1, inhibitor concentration 100 nM, 405 nm", "result": "up to 75%"}, {"measurement": "remaining activity at 0.01 µM", "setting": "[9]; 10 nM compound 1, 405 nm irradiation, read-out: restoration of enzyme activity compared with the uninhibited enzyme reaction", "result": 65, "unit": "%"}, {"measurement": "PR activity after irradiation", "setting": "[9]; 100 nM compound 1, after 5 min of irradiation at 405 nm", "result": 35, "unit": "%"}]}
{"compound": "CC(C)[C@H](N)C(=O)N[C@@H](Cc1ccccc1)C[C@H](O)[C@H](Cc1ccccc1)NC(=O)OCc1cncs1", "note": "[compound 2]", "values": [{"measurement": "Ki", "setting": "[3]; purified recombinant HIV-1 PR, chromogenic substrate KARVNleNphEaNle-NH2, read-out: Ki", "result": "3200 ± 300", "unit": "nM"}]}
